69 molecules from ChEMBL document CHEMBL3988442, “University of Dundee, Small-Polar-MMV Screening Library” (2021) can be followed below.

The subject of this test is Plasmodium falciparum. Briefly: Calibr Malaria Delayed Death Assay SOP. The class given is functional, organism-based. The conditions noted are these: for IC50: Plasmodium falciparum.

“And” between values parts separate entries of the source, which are not always exact repeats. Identical values can stand only once.

Molecule `CN(C)[C@@H]1CCN(c2ncccn2)[C@H]1Cc1ccccc1` showed a pIC50 of 6.116 and an IC50 of 554 nM.

`CC(O)c1cccc(Nc2nc(NCCO)c3ccccc3n2)c1` (configuration not stated) showed a negative-log IC50 (pIC50) of 6.601 and a half-maximal inhibitory concentration (IC50) of 220 nM.

Molecule `Oc1ccc(Cl)cc1CNCc1ccccc1Cl` had a pIC50 of 6.1 and an IC50 of 616 nM.

Turning to `Oc1ccc(Cl)cc1CNCc1ccccc1C(F)(F)F`, the pIC50 amounted to 6.047 and inhibition was half-maximal at 1080 nM (IC50).

Regarding `Cc1ccccc1CNCc1cc(Cl)ccc1O`, the pIC50 amounted to 6.395 and the IC50 was 601 nM.

The molecule `COc1cccc(CNCc2ccccc2Cl)c1O` showed a pIC50 of 6.206 and an IC50 of 677 nM.

Turning to `COc1cccc(CNCc2cccc(Cl)c2)c1O`, the pIC50 was found to be 6.064 and the midpoint of inhibition, the IC50, lay at 914 nM.

Take `COc1cccc(CNCc2ccc(F)cc2Cl)c1O`: the pIC50 worked out at 6.118 and the IC50 is 712 nM.

In the case of `COc1cccc(CNCc2ccc(F)c(Cl)c2)c1O`, the negative logarithm of the IC50 (pIC50) was found to be 6.294 and inhibition was half-maximal at 500 nM (IC50).

For `Cc1cccc(NC(=O)c2cccc(OCc3nnnn3C)c2)n1`, the pIC50 stood at 6.563 and inhibition was half-maximal at 278 nM (IC50).

The molecule `CCC(C)(C)n1nnnc1C(c1cccs1)N1CCc2ccccc2C1` (configuration not stated) showed a pIC50 of 6.38 and a 50% inhibitory concentration (IC50) of 550 nM.

In the case of `Fc1ccc(Nc2ccc(C3CCN(Cc4ncc[nH]4)CC3)nc2)nc1`, the pIC50 is reported as 6.119 and the midpoint of inhibition, the IC50, lay at 987 nM.

In turn, `Cc1cccc(C)c1Nc1noc2c1CN(C(=O)c1ccnn1C)CC2` showed a pIC50 of 6.86 and an IC50 of 142 nM.

In the case of `Cc1cccc(C)c1Nc1noc2c1CN(C(=O)c1cn(C)cn1)CC2`, the pIC50 worked out at 6.709 and the midpoint of inhibition, the IC50, lay at 190 nM.

The molecule `Cc1ccc(-c2ccccc2CC2(C(=O)NC(C)C)CCCNC2)cc1` (configuration not stated) gave a pIC50 of 6.259 and an IC50 of 491 nM.

The molecule `Cc1cccc(C)c1Nc1noc2c1CN(C(=O)c1c[nH]nc1C)CC2` had a pIC50 of 6.277 and an IC50 of 691 nM.

The molecule `Nc1cc(-c2c[nH]nc2C2CCCN2CCCc2ccccc2)ccn1` (configuration not stated) had a pIC50 of 6.087 and a 50% inhibitory concentration (IC50) of 785 nM.

The molecule `Cc1nn(C)cc1C1=NS(=O)(=O)N(C)C(C(=O)Nc2ccc(Cl)cc2)=C1` had a pIC50 of 6.442 and an IC50 of 247 nM.

On to `Cc1cc(CN2CCc3nc(-c4ccncc4)nc(O)c3CC2)c(C)s1`, for which the pIC50 is 5.926 and 6.258.

As for `FC(F)(F)c1cc(C2CCNCC2)nc(-c2ccsc2)n1`, the pIC50 came out at 6.171 and it took 626 nM to reach half-maximal inhibition (IC50).

In turn, `Cc1cccc(Nc2cccc(C3CCCN(Cc4ncc[nH]4)C3)n2)n1` (configuration not stated) had a pIC50 of 6.378 and a half-maximal inhibitory concentration (IC50) of 465 nM.

On to `CC(C)NC(=O)C1(Cc2ccccc2-c2cccs2)CCNC1` (configuration not stated), for which the pIC50 is on record as 6.06 and the midpoint of inhibition, the IC50, lay at 982 nM.

As to `CC(C)CNC(=O)C1(Cc2ccccc2-c2cccs2)CCNC1` (configuration not stated), the pIC50 is listed as 6.092 and half-maximal inhibition (IC50) required 626 nM.

Molecule `CN(C(=O)c1ccon1)[C@@H]1CCC[C@@H](Oc2ccccc2)[C@@H]1O` had a pIC50 of 5.983 and an IC50 of 1190 nM.

`CN1CCCCC1c1ncc2c(n1)CCN(Cc1ccc(F)cc1)C2` (configuration not stated): the pIC50 was 5.899 and the IC50 was 1280 nM.

Regarding `Cc1cnccc1CN1CC[C@@](C)(O)[C@H](Oc2cccc(F)c2)C1`, the pIC50 came out at 5.517 and it took 2330 nM to reach half-maximal inhibition (IC50).

`Cc1cnccc1CN1CC[C@H](Oc2cccc(F)c2)[C@@](C)(O)C1`: the pIC50 was determined as 5.772 and the IC50 was 1420 nM.

In the case of `Cc1cccnc1CN1CC[C@H](Oc2cccc(F)c2)[C@@](C)(O)C1`, the pIC50 is 6.112 and half-maximal inhibition (IC50) required 710 nM.

`Cc1ccsc1CN(CCCN(C)C)Cc1ccccn1` had a negative-log IC50 (pIC50) of 6.353 and an IC50 of 409 nM.

Consider `CN1CCC2(Cc3ccccc3CN(C(=O)Cc3cccc(Cl)c3)C2)C1` (configuration not stated), for which the negative logarithm of the IC50 (pIC50) is listed as 6.082 and the IC50 was 836 nM.

Molecule `CN1CCC(N(Cc2ccco2)S(=O)(=O)c2ccc(Cl)cc2)CC1` had a pIC50 of 6.409 and an IC50 of 560 nM.

Regarding `O=C(NC1CCN(CC2CC2)C1)N1CCC(OC2CCCCC2)CC1` (configuration not stated), the pIC50 worked out at 6.591 and half-maximal inhibition (IC50) was put at 332 nM.

The molecule `O=C(NC1CCN(CC2CCCC2)C1)N1CCC(OCC2CC2)CC1` (configuration not stated) had a pIC50 of 5.978 and an IC50 of 966 nM.

In the case of `Cn1ccnc1CNC1CCCOc2c1ccc1ccccc21` (configuration not stated), the pIC50 is 5.947 and the half-maximal inhibitory concentration (IC50) is 1200 nM.

`Cc1ccc(CN(c2cc(C)nc3nc(C(F)(F)F)nn23)C2CC2)cc1`: the negative-log IC50 (pIC50) was found to be 6.41 and half-maximal inhibition (IC50) was put at 282 nM.

Take `Fc1cccc(C(NCc2ncc[nH]2)c2ccccn2)c1` (configuration not stated): the pIC50 was 6.434 and the IC50 was 351 nM.

In turn, `Clc1cccc(C(NCc2ncc[nH]2)c2ccccn2)c1` (configuration not stated) gave a pIC50 of 6.581 and an IC50 of 225 nM.

For `CCC(CNC(=O)CNC(C)=O)Oc1cccc(F)c1` (configuration not stated), the pIC50 is 5.937 and the IC50 is 1020 nM.

As to `CCN(C)CC1CCN(S(=O)(=O)c2cc(C)c(F)cc2Cl)C1` (configuration not stated), the pIC50 stood at 5.917 and the IC50 was 986 nM.

`O=C(Nc1nccs1)C1CCCN1Cc1ccccn1` (configuration not stated) gave a pIC50 of 6.607 and an IC50 of 229 nM.

As for `CCNc1ccnc(CN2CCCC2C(=O)Nc2nccs2)c1` (configuration not stated), the pIC50 came to 6.462 and the midpoint of inhibition, the IC50, lay at 367 nM.

`CCN1CCC(CNCc2cc(C)ccc2OC)C1` (configuration not stated) showed a pIC50 of 6.037 and an IC50 of 1150 nM.

For the molecule `CNS(=O)(=O)c1cccc(C(C)NCc2ccccc2OC)c1` (configuration not stated), the pIC50 is 6.041 and the IC50 was 1090 nM.

In turn, `CCN1CCN(c2ccc(F)cc2C(C)NCc2ccccn2)CC1` (configuration not stated) had a pIC50 of 6.099 and an IC50 of 651 nM.

In turn, `CCN1CCN(c2ccc(F)cc2C(C)NCc2cscn2)CC1` (configuration not stated) had a pIC50 of 5.999 and an IC50 of 907 nM.

The molecule `O=C(C(CNCc1ccsc1)c1ccccc1)N1CCOCC1` (configuration not stated) gave a pIC50 of 6.002 and an IC50 of 1450 nM.

For the molecule `NCC(c1ccccc1)N1CCc2sccc2C1` (configuration not stated), the negative logarithm of the IC50 (pIC50) came to 6.206 and half-maximal inhibition (IC50) required 699 nM.

`Cl.Fc1cccc(F)c1Cn1c(C2CCNCC2)cc2cccnc21` had a pIC50 of 6.523 and an IC50 of 307 nM.

Turning to `Cc1nc(-c2ccc(F)c(F)c2)cc(C2CCNCC2)n1.Cl`, the negative logarithm of the IC50 (pIC50) stood at 6.123 and the IC50 is 797 nM.

`Cl.OC1(c2ccc(F)cc2)CCN(Cc2ccccc2N2CCCC2)CC1` gave a pIC50 of 5.924 and an IC50 of 850 nM.

As for `CC(C)(C)C(=O)N1C[C@H](c2ccsc2)[C@H]2CN(C3CCCCC3)CC[C@H]21.Cl`, the pIC50 came out at 6.133 and the IC50 is 683 nM.

The molecule `Cc1ccc(C2(CN3CCN(Cc4cnc(C)n4C)CC3)CC2)cc1.Cl` gave a pIC50 of 6.615 and an IC50 of 255 nM.

`COc1ccc(CN2CC[C@@H](O)[C@@H]2Cc2ccccc2)cc1.O=C(O)C(F)(F)F` had a pIC50 of 5.901 and an IC50 of 1540 nM.

As for `CO[C@@H]1CCN(Cc2ccoc2)C[C@@H]1Cc1ccccc1.O=C(O)C(F)(F)F`, the pIC50 is 5.938 and the IC50 is 1080 nM.

`CC(C)N(C)Cc1cnc2n1CCN(C(=O)NC1CCCC1)C2.O=C(O)C(F)(F)F` showed a pIC50 of 6.607 and an IC50 of 275 nM.

Turning to `Cc1noc(C)c1CN1C[C@H]2CN(Cc3cccc(F)c3)C[C@H]2C1.O=C(O)C(F)(F)F.O=C(O)C(F)(F)F`, the negative-log IC50 (pIC50) was 5.762 and the IC50 was 1220 nM.

In the case of `Cc1ccc(CNC2CC3(CCN(CCO)CC3)c3ccccc32)s1.O=C(O)C(F)(F)F.O=C(O)C(F)(F)F` (configuration not stated), the negative logarithm of the IC50 (pIC50) is listed as 6.464 and the IC50 was 322 nM.

In turn, `COCCN1CCC2(CC1)CC(NCc1ccc(C)s1)c1ccccc12.O=C(O)C(F)(F)F.O=C(O)C(F)(F)F` (configuration not stated) gave a negative logarithm of the IC50 (pIC50) of 6.267 and an IC50 of 561 nM.

Regarding `Fc1cnc(N2CCCC3(CCN(Cc4ccoc4)C3)C2)nc1.O=C(O)C(F)(F)F.O=C(O)C(F)(F)F` (configuration not stated), the pIC50 is given as 5.93 and it took 1210 nM to reach half-maximal inhibition (IC50).

In turn, `Fc1cnc(N2CCCC3(CCN(Cc4ccsc4)C3)C2)nc1.O=C(O)C(F)(F)F.O=C(O)C(F)(F)F` (configuration not stated) gave a pIC50 of 6.217 and an IC50 of 664 nM.

As to `O=C(O)C(F)(F)F.O=C(O)C(F)(F)F.O=C(O)C(F)(F)F.c1cnn(C[C@@H]2C[C@@H]3CN(CC4CC4)CC[C@@H]3N2c2nccs2)c1`, the pIC50 was determined as 6.063 and the IC50 was 859 nM.

Turning to `Cc1cc(C)cc(CN2C[C@H]3COC[C@H](N4CCN(C)CC4)[C@H]3C2)c1.O=C(O)C(F)(F)F.O=C(O)C(F)(F)F.O=C(O)C(F)(F)F`, the pIC50 turned out to be 6.958 and inhibition was half-maximal at 197 nM (IC50).

Turning to `Cc1ccc(CN(CCN(C)C)Cc2c(C)nc3sccn23)o1.O=C(O)CC(O)(CC(=O)O)C(=O)O`, the pIC50 is reported as 6.093 and the concentration for half-maximal inhibition (IC50) was 506 nM.

`Cc1ncc(CN(Cc2ccccn2)Cc2ccccc2Cl)n1C.O=C(O)CC(O)(CC(=O)O)C(=O)O`: the negative logarithm of the IC50 (pIC50) was 6.286 and the IC50 was 491 nM.

Molecule `Cc1cc(C[C@@H]2CCC[C@H]2NCc2c[nH]nc2-c2ccccc2)on1.O=C(O)CC(O)(CC(=O)O)C(=O)O` showed a pIC50 of 5.845 and an IC50 of 1230 nM.

`CC1(C)CC(N(Cc2cccnc2)Cc2cccc(F)c2)CC(C)(C)N1.O=C(O)CC(O)(CC(=O)O)C(=O)O`: the pIC50 worked out at 6.708 and half-maximal inhibition (IC50) was put at 291 nM.

With `Cc1ccsc1CN(Cc1cccnc1)C1CC(C)(C)NC(C)(C)C1.O=C(O)CC(O)(CC(=O)O)C(=O)O`, the negative logarithm of the IC50 (pIC50) was 6.511 and inhibition was half-maximal at 290 nM (IC50).

Regarding `CCCOc1ccccc1CN[C@@H]1CCC[C@H]1Cc1cc(C)no1.O=C(O)CC(O)(CC(=O)O)C(=O)O`, the pIC50 stood at 5.985 and the IC50 is 1230 nM.

For the molecule `CC1(C)CN(C(CNC2=NCCN2)c2ccc(Cl)cc2)CCO1.I` (configuration not stated), the pIC50 stood at 6.344 and the half-inhibitory concentration (IC50) is 478 nM.

In general, pIC50 refers to the IC50 on a negative log10 scale, so that one unit is a factor of ten. Lower therefore signals a large IC50. Usually IC50 stands for the concentration needed to halve the response being measured.
